Test results: patent US8486863B2, “Activators of lateral root formation” (VIB VZW, priority 2006, dated 2013)

Columns and labels:
[1] = test system: Wild-type Arabidopsis thaliana; test: Dose-response analysis of lateral root density and root length; assay type: in vivo
Procedure: FIG. 3: Dose-response analysis of class 1 (upper panel) and class 2 (lower panel) activators. Wild-type Arabidopsis thaliana seeds were germinated under standard conditions on agar plates. After 3 days of germination, seedlings were transferred to agar plates containing compound at different concentrations. Lateral root density was measured 10 days after germination. Bars represent standard errors.
FIG. 4: Dose-response analysis of A2, A11, A12, A14 and NAA. Wild-type Arabidopsis thaliana seeds were germinated under standard conditions on agar plates. After 3 days of germination, seedlings were transferred to agar plates containing compound at different concentrations and 1% DMSO. Plants transferred to agar plates containing 1% DMSO and no compound were used as controls. Lateral root density (left panels) and root length (right panels) were measured 10 days after germination. Bars represent standard errors.
For further phenotypic analysis, all plants were grown on vertically oriented square plates (Greiner Labortechnik, Austria) with solid medium derived from standard MS medium under the same conditions. 3 DAG plants were transferred to medium supplemented with compounds and were left to grow for another 7 days. After this, root length and number of LRs were counted using ImageJ 1.34 freeware.
As a subsequent step, the phenotypic effect of the 16 selected activators was determined in a dose-response analysis in which LR density (number of LRs per cm) was quantified (FIG. 3). Based upon potency and structure, two different classes of activators could be identified.

auxin signaling mutants [2] = test: Effect of activators on lateral root density of auxin signaling mutants (Table 2); assay type: in vivo, Arabidopsis thaliana
Source text: (§1) Afb1, Afb2, Afb3 and the triple mutant Tirlafb2afb3 were described by Dhamasiri et al. (2005). Tir1 was described by Ruegger et al., (1998); 1aa28 by Rogg et al., (2001); Tir7-1 by Ruegger et al., (1997); the Cyp79b2b3 double mutant by Ljung et al. (2005); the arf7arf19 double mutant by Fukaki et al., (2005); Aux1 by Bennett et al., (1996); Xbat32 by Nodzon et al., (2004), Axr1-12 by Timpte et al., (1995), Slr1 by Fukaki et al., 2002 and Axr3-1 by Collet et al., (2000) and the mutants were obtained from the publishing authors.
(§2) For phenotypic analysis, all mutants were grown on vertically oriented square plates (Greiner Labortechnik, Austria) with solid medium derived from standard MS medium. The plates were put in a growth chamber under continuous light (110 μE.m2.s1 photosynthetically active radiation, supplied by cool-white fluorescent tungsten tubes; Osram) at 22° C. Three days after germination, the mutant plants were transferred to medium supplemented with compounds and were left to grow for another 7 days. After this, root length and number of lateral roots were counted using ImageJ 1.34 freeware.

auxin signaling mutants [3] = test: Effect of A12 and NAA on lateral root density and root length of auxin signaling mutants (Table 1); assay type: in vivo, Arabidopsis thaliana; design: Root length: unit not given here; details: 30 uM
Source text: as §1, §2
DMSO is used as negative control.

[4] = tir TM (Tir1afb2afb3 triple mutant)

O=Cc1ccc(-c2cccc(C(F)(F)F)c2)o1 [A11var5]
effect on LR formation (LR density), structure-activity analysis ([1]; structural variants, FIG. 6-8): minimal substructure required to induce LR formation

Cc1c(N=Cc2cccc(Cl)c2Cl)cccc1[N+](=O)[O-] [A7, (2,3-dichlorobenzylidene)(2-methyl-3-nitrophenyl)amine]
lateral root density (auxin signaling mutants [2]; Afb1-1, 3 uM): 9.46 LR/cm
lateral root density (auxin signaling mutants [2]; Afb2-1, 3 uM): 2.69 LR/cm
lateral root density (auxin signaling mutants [2]; Afb3-1, 3 uM): 17.43 LR/cm
lateral root density (auxin signaling mutants [2]; Arf7Arf19, 3 uM): 0.00 LR/cm
lateral root density (auxin signaling mutants [2]; Arf16, 3 uM): 2.71 LR/cm
lateral root density (auxin signaling mutants [2]; Arf17, 3 uM): 3.40 LR/cm
lateral root density (auxin signaling mutants [2]; Axrt-12, 3 uM): 2.02 LR/cm
lateral root density (auxin signaling mutants [2]; Cyp79, 3 uM): 19.35 LR/cm
lateral root density (auxin signaling mutants [2]; Iaa28-1, 3 uM): 0.00 LR/cm
lateral root density (auxin signaling mutants [2]; Tir1-1, 3 uM): 1.01 LR/cm
lateral root density (auxin signaling mutants [2]; Tir7-1, 3 uM): 5.73 LR/cm
lateral root density (auxin signaling mutants [2]; TirTM, 3 uM): 0.00 LR/cm
lateral root density (auxin signaling mutants [2]; Xbat32, 3 uM): 1.23 LR/cm

Clc1cccc(C=Nc2ccc(N3CCOCC3)cc2)c1Cl [A4, (2,3-dichlorobenzylidene)[4-(4-morpholinyl)phenyl]amine]
lateral root density (auxin signaling mutants [2]; Afb1-1, 3 uM): 2.69 LR/cm
lateral root density (auxin signaling mutants [2]; Afb2-1, 3 uM): 2.16 LR/cm
lateral root density (auxin signaling mutants [2]; Afb3-1, 3 uM): 2.55 LR/cm
lateral root density (auxin signaling mutants [2]; Arf7Arf19, 3 uM): 0.00 LR/cm
lateral root density (auxin signaling mutants [2]; Arf16, 3 uM): 1.99 LR/cm
lateral root density (auxin signaling mutants [2]; Arf17, 3 uM): 1.87 LR/cm
lateral root density (auxin signaling mutants [2]; Axrt-12, 3 uM): 1.64 LR/cm
lateral root density (auxin signaling mutants [2]; Cyp79, 3 uM): 2.64 LR/cm
lateral root density (auxin signaling mutants [2]; Iaa28-1, 3 uM): 0.00 LR/cm
lateral root density (auxin signaling mutants [2]; Tir1-1, 3 uM): 0.89 LR/cm
lateral root density (auxin signaling mutants [2]; Tir7-1, 3 uM): 3.69 LR/cm
lateral root density (auxin signaling mutants [2]; TirTM, 3 uM): 0.00 LR/cm
lateral root density (auxin signaling mutants [2]; Xbat32, 3 uM): 0.91 LR/cm

Nc1ncc(Cc2cccc(Cl)c2Cl)s1 [A3, 5-(2,3-dichlorobenzyl)-1,3-thiazol-2-amine]
lateral root density (auxin signaling mutants [2]; Afb1-1, 3 uM): 17.77 LR/cm
lateral root density (auxin signaling mutants [2]; Afb2-1, 3 uM): 19.58 LR/cm
lateral root density (auxin signaling mutants [2]; Afb3-1, 3 uM): 17.45 LR/cm
lateral root density (auxin signaling mutants [2]; Arf7Arf19, 3 uM): 33.59 LR/cm
lateral root density (auxin signaling mutants [2]; Arf16, 3 uM): 11.32 LR/cm
lateral root density (auxin signaling mutants [2]; Arf17, 3 uM): 13.31 LR/cm
lateral root density (auxin signaling mutants [2]; Axrt-12, 3 uM): 15.77 LR/cm
lateral root density (auxin signaling mutants [2]; Cyp79, 3 uM): 21.24 LR/cm
lateral root density (auxin signaling mutants [2]; Iaa28-1, 3 uM): 13.96 LR/cm
lateral root density (auxin signaling mutants [2]; Tir1-1, 3 uM): 11.91 LR/cm
lateral root density (auxin signaling mutants [2]; Tir7-1, 3 uM): 26.15 LR/cm
lateral root density (auxin signaling mutants [2]; TirTM, 3 uM): 10.88 LR/cm
lateral root density (auxin signaling mutants [2]; Xbat32, 3 uM): 13.07 LR/cm

NC(=S)NN=Cc1ccc(-c2cccc(C(F)(F)F)c2)o1 [A12, 5-[3-(trifluoromethyl)phenyl]-2-furaldehyde thiosemicarbazone]
potency as activator of LR development (LR density) ([1]; dose-response, FIG. 3): most potent activators of class 2
LR density (auxin signaling mutants [3]; CDKB DN): 9.09
Root length (auxin signaling mutants [3]; CDKB DN): 1.56
Root length (auxin signaling mutants [3]; Col-0): 2.24
LR density (auxin signaling mutants [3]; Ws): 16.70
Root length (auxin signaling mutants [3]; Ws): 1.92
LR density (auxin signaling mutants [3]; Xbat32): 14.16
Root length (auxin signaling mutants [3]; Xbat32): 2.44
LR density (auxin signaling mutants [3]; afb1-1): 15.55
Root length (auxin signaling mutants [3]; afb1-1): 1.86
LR density (auxin signaling mutants [3]; afb2-1): 15.11
Root length (auxin signaling mutants [3]; afb2-1): 1.71
LR density (auxin signaling mutants [3]; afb3-1): 21.32
Root length (auxin signaling mutants [3]; afb3-1): 2.17
LR density (auxin signaling mutants [3]; arf7arf19 DM (double mutant)): 1.73
Root length (auxin signaling mutants [3]; arf7arf19 DM (double mutant)): 3.45
LR density (auxin signaling mutants [3]; aux1): 15.94
Root length (auxin signaling mutants [3]; aux1): 2.24
LR density (auxin signaling mutants [3]; axr1-12): 15.84
Root length (auxin signaling mutants [3]; axr1-12): 1.62
LR density (auxin signaling mutants [3]; axr5-1): 14.10
Root length (auxin signaling mutants [3]; axr5-1): 3.40
LR density (auxin signaling mutants [3]; cyp79b2-3 DM (double mutant)): 17.30
Root length (auxin signaling mutants [3]; cyp79b2-3 DM (double mutant)): 2.26
LR density (auxin signaling mutants [3]; iaa28-1): 8.85
Root length (auxin signaling mutants [3]; iaa28-1): 3.39
LR density (auxin signaling mutants [3]; lax3): 15.27
Root length (auxin signaling mutants [3]; lax3): 2.48
LR density (auxin signaling mutants [3]; msg2-1): 27.49
Root length (auxin signaling mutants [3]; msg2-1): 1.58
LR density (auxin signaling mutants [3]; slr-1): 0.00
Root length (auxin signaling mutants [3]; slr-1): 1.90
LR density (auxin signaling mutants [3]; tir1-1): 13.38
Root length (auxin signaling mutants [3]; tir1-1): 2.34
LR density (auxin signaling mutants [3]; tir7-1): 17.30
Root length (auxin signaling mutants [3]; tir7-1): 1.52
LR density (auxin signaling mutants [3]; [4]): 4.82
Root length (auxin signaling mutants [3]; [4]): 2.60
lateral root density (auxin signaling mutants [2]; Afb1-1, 30 uM): 23.19 LR/cm
lateral root density (auxin signaling mutants [2]; Afb2-1, 30 uM): 10.44 LR/cm
lateral root density (auxin signaling mutants [2]; Afb3-1, 30 uM): 21.05 LR/cm
lateral root density (auxin signaling mutants [2]; Arf7Arf19, 30 uM): 0.94 LR/cm
lateral root density (auxin signaling mutants [2]; Arf16, 30 uM): 10.94 LR/cm
lateral root density (auxin signaling mutants [2]; Arf17, 30 uM): 15.09 LR/cm
lateral root density (auxin signaling mutants [2]; Axrt-12, 30 uM): 14.15 LR/cm
lateral root density (auxin signaling mutants [2]; Cyp79, 30 uM): 22.76 LR/cm
lateral root density (auxin signaling mutants [2]; Iaa28-1, 30 uM): 10.00 LR/cm
lateral root density (auxin signaling mutants [2]; Tir7-1, 30 uM): 27.42 LR/cm
lateral root density (auxin signaling mutants [2]; TirTM, 30 uM): 0.00 LR/cm

O=C(NN=Cc1cccc(Cl)c1Cl)c1ccc(O)c(O)c1 [A6, N′-(2,3-dichlorobenzylidene)-3,4-dihydroxybenzohydrazide]
lateral root density (auxin signaling mutants [2]; Afb1-1, 3 uM): 10.89 LR/cm
lateral root density (auxin signaling mutants [2]; Afb2-1, 3 uM): 7.34 LR/cm
lateral root density (auxin signaling mutants [2]; Afb3-1, 3 uM): 14.40 LR/cm
lateral root density (auxin signaling mutants [2]; Arf7Arf19, 3 uM): 0.00 LR/cm
lateral root density (auxin signaling mutants [2]; Arf16, 3 uM): 6.67 LR/cm
lateral root density (auxin signaling mutants [2]; Arf17, 3 uM): 7.24 LR/cm
lateral root density (auxin signaling mutants [2]; Axrt-12, 3 uM): 4.78 LR/cm
lateral root density (auxin signaling mutants [2]; Cyp79, 3 uM): 31.92 LR/cm
lateral root density (auxin signaling mutants [2]; Iaa28-1, 3 uM): 0.00 LR/cm
lateral root density (auxin signaling mutants [2]; Tir1-1, 3 uM): 0.57 LR/cm
lateral root density (auxin signaling mutants [2]; Tir7-1, 3 uM): 11.42 LR/cm
lateral root density (auxin signaling mutants [2]; TirTM, 3 uM): 0.00 LR/cm
lateral root density (auxin signaling mutants [2]; Xbat32, 3 uM): 10.08 LR/cm

Cc1ccccc1OCC(=O)NN=Cc1ccc(C(=O)O)cc1 [A9, 4-{2-[(2-methylphenoxy)acetyl]carbonohydrazonoyl}benzoic acid]
lateral root density (auxin signaling mutants [2]; Afb1-1, 30 uM): 13.57 LR/cm
lateral root density (auxin signaling mutants [2]; Afb2-1, 30 uM): 11.19 LR/cm
lateral root density (auxin signaling mutants [2]; Afb3-1, 30 uM): 16.77 LR/cm
lateral root density (auxin signaling mutants [2]; Arf7Arf19, 30 uM): 0.25 LR/cm
lateral root density (auxin signaling mutants [2]; Arf16, 30 uM): 6.67 LR/cm
lateral root density (auxin signaling mutants [2]; Arf17, 30 uM): 12.86 LR/cm
lateral root density (auxin signaling mutants [2]; Axrt-12, 30 uM): 6.09 LR/cm
lateral root density (auxin signaling mutants [2]; Cyp79, 30 uM): 13.29 LR/cm
lateral root density (auxin signaling mutants [2]; Iaa28-1, 30 uM): 12.33 LR/cm
lateral root density (auxin signaling mutants [2]; Tir1-1, 30 uM): 3.29 LR/cm
lateral root density (auxin signaling mutants [2]; Tir7-1, 30 uM): 17.91 LR/cm
lateral root density (auxin signaling mutants [2]; TirTM, 30 uM): 0.00 LR/cm
lateral root density (auxin signaling mutants [2]; Xbat32, 30 uM): 8.43 LR/cm
